Where two headings read alike, the source gives them in different places. Numbered stars: 1 amine (or outer) side, 2 acyl side, 3 side chain; on linkers, the order of the positions; unused ones are H or OH. Bridge positions count the residues as written; N and C are the ends. Square brackets hold non-standard residues; d marks the D form. Peptide text beside a SMILES is read from it. * marks the point of attachment. Phe(4-CH2CH2COOH) = N[C@@H](Cc1ccc(CCC(=O)O)cc1)C(=O)O; Phe(3-CF3) = N[C@@H](Cc1cccc(C(F)(F)F)c1)C(=O)O; X8 = N=C(N)NCc1cccc(C[C@H](N[*:1])C(=O)[*:2])c1; Ala(morpholin-4-yl) = N[C@@H](CN1CCOCC1)C(=O)O; Phe(4-CONH2) = NC(=O)c1ccc(C[C@H](N)C(=O)O)cc1; Phe(4-COOH) = N[C@@H](Cc1ccc(C(=O)O)cc1)C(=O)O; Phe(2-CF3) = N[C@@H](Cc1ccccc1C(F)(F)F)C(=O)O; Phe(3,5-F2) = N[C@@H](Cc1cc(F)cc(F)c1)C(=O)O; Bip = N[C@@H](Cc1ccc(-c2ccccc2)cc1)C(=O)O; Abu(3R-NH2) = C[C@@H](N)[C@H](N)C(=O)O; Phe(3-Me) = Cc1cccc(C[C@H](N)C(=O)O)c1; Abu(3S-NH2) = C[C@H](N)[C@H](N)C(=O)O; Dap(CONH2) = NC(=O)NC[C@H](N)C(=O)O; Val(3-OH) = CC(C)(O)[C@H](N)C(=O)O; Ala(cPr) = N[C@@H](CC1CC1)C(=O)O; hPhe = N[C@@H](CCc1ccccc1)C(=O)O; Cha = N[C@@H](CC1CCCCC1)C(=O)O; Carboxymethyl = O=C(O)C*; NMeA = CN[C@@H](C)C(=O)O; Orn = NCCC[C@H](N)C(=O)O; Dab = NCC[C@H](N)C(=O)O; Nva = CCC[C@H](N)C(=O)O
Assays:
[1] = target: T1, Alexa fluor-647 labeled human PD-L1-Ig binding to Jurkat cell line over-expressing human PD-1 (Homo sapiens, UniProt Q15116); test: Jurkat-PD-1 Cell Binding High-Content Screening Assay (CBA): Method 3 (Alexa fluor-647 labeled PD-L1-Ig); conditions: Jurkat-PD-1 cells, Alexa fluor-647 labeled PD-L1-Ig 177 nM
T1 construct: expressed in transfected cells; host or cells: Jurkat
T1 sequence (Q15116 25-288): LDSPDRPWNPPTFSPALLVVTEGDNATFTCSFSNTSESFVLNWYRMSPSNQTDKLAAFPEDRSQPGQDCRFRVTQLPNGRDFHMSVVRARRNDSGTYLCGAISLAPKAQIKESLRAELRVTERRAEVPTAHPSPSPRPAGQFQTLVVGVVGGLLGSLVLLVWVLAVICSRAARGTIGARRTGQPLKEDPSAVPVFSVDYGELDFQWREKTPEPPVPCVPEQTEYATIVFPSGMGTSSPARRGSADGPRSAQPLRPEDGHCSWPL
Outline: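 Jurkat cells over-expressing human PD-1 in RPMI/10% FCS were preincubated 2 h at 37 °C with compound, then exposed 1 h to Alexa fluor-647 labeled human PD-L1-Ig (177 nM final). Cells fixed in 4% paraformaldehyde with Hoechst 33342 and binding quantified by high-content imaging.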

[2] = target: T2, PD1-PDL1 protein-protein binding interaction [hPD1(25-167)-hIgG, hPD-L1 (19-239)-6xHis] (Homo sapiens, UniProt Q15116); test: HTRF Assay (TR-FRET); conditions: 5 nM hPD1-hIgG, 5 nM hPD-L1-6xHis, 24 hours at 25° C.
T2 construct: hPD1(25-167)-hIgG, BMS
T2 sequence (Q15116 25-167): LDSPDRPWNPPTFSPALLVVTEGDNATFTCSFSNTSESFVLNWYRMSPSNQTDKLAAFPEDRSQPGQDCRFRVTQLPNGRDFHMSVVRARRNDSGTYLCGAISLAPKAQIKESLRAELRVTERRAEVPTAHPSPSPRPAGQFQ
Experimental: A time-resolved fluorescence resonance energy transfer (TR-FRET) assay was employed to measure the inhibition of the PD1-PDL1 protein-protein binding interaction. The reaction buffer was prepared by mixing the HiBlock buffer and LANCE detection buffer (PerkinElmer, TRF1011F and CR97-100) at a 1:1 ratio. Assay reactions contained 5 nM human programmed cell death 1 [hPD1(25-167)-hIgG, BMS], 5 nM human programmed cell death ligand 1 [hPD-L1 (19-239)-6×His, BMS], in the presence of 1 nM LANCE Eu-W1024 Anti-Human IgG (Eu-anti hIgG, PerkinElmer, AD0074) and 20 nM SureLight Allophycocyanin-anti-6×His antibody (APC-anti-6×His, PerkinElmer, AD0059H). Test compounds were evaluated in a 10-point dose-response format with serial three-fold dilutions starting from a 2 uM top concentration. Reactions were carried out in a total volume of 10 uL in 384-well microtiter plates (Proxiplate white, PerkinElmer, 6008289). Plates were sealed and incubated for 24 hours at 25° C. After 24 hours, the TR-FRET signal was measured using a PerkinElmer EnVision multimode plate reader and the resulting ratiometric data set (signal at 665 nm/615 nm, multiplied by a factor of 10,000) was recorded. The concentration giving half-maximal inhibition (the IC50) was obtained by fitting the data to a four-parameter logistic equation using Graphpad Prism or Dotmatics.

[3] = head μM, read-out: CBA Method 3 μM

IC50 ([1]; nM, read-out: CBA Method 3) [nM] | IC50 ([2]; head μM) [µM] | IC50 [1, 3] [nM] | IC50 ([2]; nM) [µM] | Compound
2.3 | 0.01 |  |  | Cc1cccc(C[C@@H]2NC(=O)[C@H](CC(=O)O)NC(=O)[C@H](Cc3ccc(OCC(=O)O)cc3)NC(=O)[C@H](CC3CC3)NC(=O)CSC[C@@H](C(=O)N[C@@H](CCN)C(N)=O)NC(=O)[C@H](CCCN)NC(=O)[C@H](C(C)C)NC(=O)[C@H](CC3CCCCC3)NC(=O)[C@H](CCN)NC(=O)[C@@H](CC(C)C)NC(=O)[C@H](C)N(C)C(=O)[C@H](CCC(N)=O)NC(=O)[C@H](Cc3ccc(-c4ccccc4)cc3)NC(=O)[C@H](Cc3ccc(C(=O)O)cc3)NC2=O)c1 [Example 5185] ({CH2CO}-[Ala(cPr)]Y(Carboxymethyl)D[Phe(3-Me)][Phe(4-COOH)][Bip]Q[NMeA][dL][Dab][Cha]V[Orn]C[Dab]-NH2; thioether N-14)
3.9 | 0.02 |  |  | Cc1cccc(C[C@@H]2NC(=O)[C@H](CC(=O)O)NC(=O)[C@H](Cc3ccc(OCC(=O)O)cc3)NC(=O)[C@H](CN3CCOCC3)NC(=O)CSC[C@@H](C(=O)N[C@@H](CCN)C(N)=O)NC(=O)[C@H](CCC(=O)O)NC(=O)[C@H](C(C)C)NC(=O)[C@H](CC3CCCCC3)NC(=O)[C@H](CCN)NC(=O)[C@@H](CC(C)C)NC(=O)[C@H](C)N(C)C(=O)[C@H](CCC(N)=O)NC(=O)[C@H](Cc3ccc(-c4ccccc4)cc3)NC(=O)[C@H](CCc3ccccc3)NC2=O)c1 [Example 5212] ({CH2CO}-[Ala(morpholin-4-yl)]Y(Carboxymethyl)D[Phe(3-Me)][hPhe][Bip]Q[NMeA][dL][Dab][Cha]VEC[Dab]-NH2; thioether N-14)
 | 0.01 | 200 |  | Cc1cccc(C[C@@H]2NC(=O)[C@H](CC(=O)O)NC(=O)[C@H](Cc3ccc(OCC(=O)O)cc3)NC(=O)[C@H](Cc3cc(F)cc(F)c3)NC(=O)CSC[C@@H](C(=O)N[C@@H](CCN)C(N)=O)NC(=O)[C@H](CCCN)NC(=O)[C@H](C(C)C)NC(=O)[C@H](CC3CCCCC3)NC(=O)[C@H](CCN)NC(=O)[C@@H](CC(C)C)NC(=O)[C@H](C)N(C)C(=O)[C@H](CCC(N)=O)NC(=O)[C@H](Cc3ccc(-c4ccccc4)cc3)NC(=O)[C@H](Cc3ccc(C(=O)O)cc3)NC2=O)c1 [Example 5284] ({CH2CO}-[Phe(3,5-F2)]Y(Carboxymethyl)D[Phe(3-Me)][Phe(4-COOH)][Bip]Q[NMeA][dL][Dab][Cha]V[Orn]C[Dab]-NH2; thioether N-14)
 |  |  | 0.0023 | CCC[C@@H]1NC(=O)CSC[C@@H](C(=O)N[C@@H](CCN)C(N)=O)NC(=O)[C@H](CCCN)NC(=O)[C@H](C(C)C)NC(=O)[C@H](CC2CCCCC2)NC(=O)[C@H](CCN)NC(=O)[C@@H](CC(C)C)NC(=O)[C@H](C)N(C)C(=O)[C@H](CCC(N)=O)NC(=O)[C@H](Cc2ccc(-c3ccccc3)cc2)NC(=O)[C@H](Cc2ccc(C(=O)O)cc2)NC(=O)[C@H](Cc2cccc(C)c2)NC(=O)[C@H](CC(=O)O)NC(=O)[C@H](Cc2ccc(OCC(=O)O)cc2)NC1=O [Example 5297] ({CH2CO}-[Nva]Y(Carboxymethyl)D[Phe(3-Me)][Phe(4-COOH)][Bip]Q[NMeA][dL][Dab][Cha]V[Orn]C[Dab]-NH2; thioether N-14)
0.5 | 0.01 |  |  | Cc1cccc(C[C@@H]2NC(=O)[C@H](CC(=O)O)NC(=O)[C@H](Cc3ccc(CCC(=O)O)cc3)NC(=O)[C@H](CNC(N)=O)NC(=O)CSC[C@@H](C(=O)N[C@@H](CCN)C(N)=O)NC(=O)[C@H](CCCN)NC(=O)[C@H](C(C)C)NC(=O)[C@H](CC3CCCCC3)NC(=O)[C@H](CCN)NC(=O)[C@@H](CC(C)C)NC(=O)[C@H](C)N(C)C(=O)[C@H](CCC(N)=O)NC(=O)[C@H](Cc3ccc(-c4ccccc4)cc3)NC(=O)[C@H](Cc3ccc(C(=O)O)cc3)NC2=O)c1 [Example 5298] ({CH2CO}-[Dap(CONH2)][Phe(4-CH2CH2COOH)]D[Phe(3-Me)][Phe(4-COOH)][Bip]Q[NMeA][dL][Dab][Cha]V[Orn]C[Dab]-NH2; thioether N-14)
 | 0.01 | 10 |  | CC(C)C[C@H]1NC(=O)[C@H](C)N(C)C(=O)[C@H](CCC(N)=O)NC(=O)[C@H](Cc2ccc(-c3ccccc3)cc2)NC(=O)[C@H](CCc2ccccc2)NC(=O)[C@H](Cc2cccc(C(F)(F)F)c2)NC(=O)[C@H](CC(=O)O)NC(=O)[C@H](CCC(N)=O)NC(=O)[C@H](CN2CCOCC2)NC(=O)CSC[C@@H](C(=O)N[C@@H](CCN)C(N)=O)NC(=O)[C@H](CCCN)NC(=O)[C@H](C(C)C)NC(=O)[C@H](CC2CCCCC2)NC(=O)[C@H](CCN)NC1=O [Example 5245] ({CH2CO}-[Ala(morpholin-4-yl)]QD[Phe(3-CF3)][hPhe][Bip]Q[NMeA][dL][Dab][Cha]V[Orn]C[Dab]-NH2; thioether N-14)
 | 0.05 | 10 |  | CC(C)C[C@H]1NC(=O)[C@H](C)N(C)C(=O)[C@H](Cc2ccc(C(N)=O)cc2)NC(=O)[C@H](Cc2ccc(-c3ccccc3)cc2)NC(=O)[C@H](CCc2ccccc2)NC(=O)[C@H](Cc2cccc(C(F)(F)F)c2)NC(=O)[C@H](CC(=O)O)NC(=O)[C@H](Cc2ccc(C(=O)O)cc2)NC(=O)[C@H]([C@H](C)N)NC(=O)CSC[C@@H](C(=O)N[C@@H](CCN)C(N)=O)NC(=O)[C@H](CCC(N)=O)NC(=O)[C@H](C(C)(C)O)NC(=O)[C@H](CC2CCCCC2)NC(=O)[C@H](CCN)NC1=O [Example 5206] ({CH2CO}-[Abu(3S-NH2)][Phe(4-COOH)]D[Phe(3-CF3)][hPhe][Bip][Phe(4-CONH2)][NMeA][dL][Dab][Cha][Val(3-OH)]QC[Dab]-NH2; thioether N-14)
0.2 | 0.03 |  |  | Cc1cccc(C[C@@H]2NC(=O)[C@H](CC(=O)O)NC(=O)[C@H](Cc3ccc(OCC(=O)O)cc3)NC(=O)[C@H](Cc3ccccc3C(F)(F)F)NC(=O)CSC[C@@H](C(=O)N[C@@H](CCN)C(N)=O)NC(=O)[C@H](CCCN)NC(=O)[C@H](C(C)C)NC(=O)[C@H](CC3CCCCC3)NC(=O)[C@H](CCN)NC(=O)[C@@H](CC(C)C)NC(=O)[C@H](C)N(C)C(=O)[C@H](CCC(N)=O)NC(=O)[C@H](Cc3ccc(-c4ccccc4)cc3)NC(=O)[C@H](Cc3ccc(C(=O)O)cc3)NC2=O)c1 [Example 5292] ({CH2CO}-[Phe(2-CF3)]Y(Carboxymethyl)D[Phe(3-Me)][Phe(4-COOH)][Bip]Q[NMeA][dL][Dab][Cha]V[Orn]C[Dab]-NH2; thioether N-14)
1.1 | 0.1 |  |  | CC(C)C[C@H]1NC(=O)[C@H](C)N(C)C(=O)[C@H](CCC(N)=O)NC(=O)[C@H](Cc2ccc(-c3ccccc3)cc2)NC(=O)[C@H](CCc2ccccc2)NC(=O)[C@H](Cc2cccc(C(F)(F)F)c2)NC(=O)[C@H](CC(=O)O)NC(=O)[C@H](Cc2ccc(O)cc2)NC(=O)[C@H]([C@@H](C)N)NC(=O)CSC[C@@H](C(=O)N[C@@H](CCN)C(N)=O)NC(=O)[C@H](CCCN)NC(=O)[C@H](C(C)C)NC(=O)[C@H](CC2CCCCC2)NC(=O)[C@H](CCN)NC1=O [Example 5236] ({CH2CO}-[Abu(3R-NH2)]YD[Phe(3-CF3)][hPhe][Bip]Q[NMeA][dL][Dab][Cha]V[Orn]C[Dab]-NH2; thioether N-14)
3 | 0.015 |  |  | Cc1cccc(C[C@@H]2NC(=O)[C@H](CC(=O)O)NC(=O)[C@H](Cc3ccc(OCC(=O)O)cc3)NC(=O)[C@H](Cc3cccc(CNC(=N)N)c3)NC(=O)CSC[C@@H](C(=O)N[C@@H](CCN)C(N)=O)NC(=O)[C@H](CCCN)NC(=O)[C@H](C(C)C)NC(=O)[C@H](CC3CCCCC3)NC(=O)[C@H](CCN)NC(=O)[C@@H](CC(C)C)NC(=O)[C@H](C)N(C)C(=O)[C@H](CCC(N)=O)NC(=O)[C@H](Cc3ccc(-c4ccccc4)cc3)NC(=O)[C@H](Cc3ccc(C(=O)O)cc3)NC2=O)c1 [Example 5279] ({CH2CO}-[X8]Y(Carboxymethyl)D[Phe(3-Me)][Phe(4-COOH)][Bip]Q[NMeA][dL][Dab][Cha]V[Orn]C[Dab]-NH2; thioether N-14)
 | 0.04 | 10 |  | CC(C)C[C@H]1NC(=O)[C@H](C)N(C)C(=O)[C@H](CCC(N)=O)NC(=O)[C@H](Cc2ccc(-c3ccccc3)cc2)NC(=O)[C@H](CCc2ccccc2)NC(=O)[C@H](Cc2cccc(C(F)(F)F)c2)NC(=O)[C@H](CC(=O)O)NC(=O)[C@H](Cc2ccc(OCC(=O)O)cc2)NC(=O)[C@H](CN2CCOCC2)NC(=O)CSC[C@@H](C(=O)N[C@@H](CCN)C(N)=O)NC(=O)[C@H](CCC(=O)O)NC(=O)[C@H](C(C)C)NC(=O)[C@H](CC2CCCCC2)NC(=O)[C@H](CCN)NC1=O [Example 5211] ({CH2CO}-[Ala(morpholin-4-yl)]Y(Carboxymethyl)D[Phe(3-CF3)][hPhe][Bip]Q[NMeA][dL][Dab][Cha]VEC[Dab]-NH2; thioether N-14)

From US20240409585A1, “MACROCYCLIC IMMUNOMODULATORS” (priority 2021, published 2024)
